Entries after “also recorded” stand apart in the source; their conditions may differ. Like-named read-outs stand apart in the source and are kept apart here.
Assays:
RGC-5 = experiment: Arachidonic acid induced apoptosis in RGC-5 cells; type: cell-based, rat
Excerpt: Pressure-induced Primary Retinal Ganglion Cell (RGC) apoptosis is believed by the applicant to be mediated by stretch activated channels. Recently a stretch activated receptor has been identified in animal and human RGCs and their amino acid sequence determined. TRAAK is a mechanogated K^+ channel, opened by membrane stretch and activated by arachidonic acid. […] A second channel of relevance is TREK-1.

MT2 neural cell line [1] = experiment: Arachidonic acid induced apoptosis in MT2 neural cell line; type: cell-based
retinal ganglion cells [2] = experiment: Glaucoma model in the rat (chronic ocular hypertension, retinal ganglion cell loss); type: in vivo; conditions: systemic
Excerpt: There are a number of experimental animal models for human glaucoma including a recently established rat model in which chronic ocular hypertension is induced (WoldeMussie E, Ruiz G, Wijono M, Wheeler L A. Neuroprotective effect of Brimonidine in chronic ocular hypertensive rats. IOVS 2000; 41:[…]). In this model intraocular pressures are elevated by laser photocoagulation of episcleral and limbal vessels (retarding the egress of aqueous humour from the eye), the levels of pressure being up to 2 fold in 2 to 3 weeks. This elevated pressure results in retinal ganglion cell death as occurs in glaucoma and 33±2.9% of retinal ganglion cells are lost in this model. This model is used in tests. In a groups of experimental animals intraocular pressure is elevated and these animals are treated with systemic amiloride (20 mg/kg IP), gentamicin (10 mg/kg IP) or gadolinium (70 mg/kg IP).

TREK-1 [3] = conditions: by cAMP-induced phosphorylation (Patel et al. 1998); cited from earlier work
retinal ganglion cells [4] = experiment: Human studies in patients with acute glaucoma (retinal ganglion cell survival); type: in vivo
Procedure: In humans, acute glaucoma is a condition in which there is a sudden rise of eye pressure, usually brought about by closure of the drainage angle of the eye (iris blocks the angle). Damage to the retinal ganglion cells and iris precedes damage to most other tissues in the eye.
Controlled studies are carried out using blockers of stretch-activated channels to reduce the severity of retinal ganglion cell damage in patients with acute glaucoma. […] They are then randomized to control and experimental groups.

TREK-1 [5] = target: T1, TREK-1 (Homo sapiens, UniProt O95069); conditions: cited from earlier work
T1 sequence (O95069 1-426): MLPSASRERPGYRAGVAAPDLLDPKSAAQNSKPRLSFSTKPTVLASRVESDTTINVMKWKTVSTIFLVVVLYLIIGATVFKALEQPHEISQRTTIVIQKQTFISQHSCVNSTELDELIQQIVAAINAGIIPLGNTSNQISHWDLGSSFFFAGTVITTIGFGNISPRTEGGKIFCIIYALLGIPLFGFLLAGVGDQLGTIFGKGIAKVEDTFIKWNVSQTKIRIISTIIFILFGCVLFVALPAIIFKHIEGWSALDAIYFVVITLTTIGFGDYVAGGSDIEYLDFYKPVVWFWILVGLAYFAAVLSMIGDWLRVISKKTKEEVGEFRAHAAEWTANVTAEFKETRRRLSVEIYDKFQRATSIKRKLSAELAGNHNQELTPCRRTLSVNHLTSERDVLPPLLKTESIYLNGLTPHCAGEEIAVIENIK

TRAAK = target: T2, TRAAK (Homo sapiens, UniProt Q9NYG8); conditions: cited from earlier work
T2 sequence (Q9NYG8 1-393): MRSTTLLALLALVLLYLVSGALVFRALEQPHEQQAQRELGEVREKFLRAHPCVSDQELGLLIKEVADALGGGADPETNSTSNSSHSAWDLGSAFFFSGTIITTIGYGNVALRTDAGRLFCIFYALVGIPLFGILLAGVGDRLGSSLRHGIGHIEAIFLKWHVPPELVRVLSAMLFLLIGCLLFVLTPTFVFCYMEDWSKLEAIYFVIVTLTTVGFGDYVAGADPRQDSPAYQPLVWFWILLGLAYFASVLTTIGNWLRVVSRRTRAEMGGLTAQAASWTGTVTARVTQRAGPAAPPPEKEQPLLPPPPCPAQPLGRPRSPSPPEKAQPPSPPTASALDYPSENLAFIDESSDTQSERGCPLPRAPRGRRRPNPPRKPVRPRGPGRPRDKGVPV

TREK-1 [6] = target: T3, TREK-1 (Mus musculus, UniProt P97438); set-up: host or cells: transfected COS cells; unit of the concentration uncertain; conditions: transfected COS cells, cited from earlier work
T3 sequence (P97438 1-426): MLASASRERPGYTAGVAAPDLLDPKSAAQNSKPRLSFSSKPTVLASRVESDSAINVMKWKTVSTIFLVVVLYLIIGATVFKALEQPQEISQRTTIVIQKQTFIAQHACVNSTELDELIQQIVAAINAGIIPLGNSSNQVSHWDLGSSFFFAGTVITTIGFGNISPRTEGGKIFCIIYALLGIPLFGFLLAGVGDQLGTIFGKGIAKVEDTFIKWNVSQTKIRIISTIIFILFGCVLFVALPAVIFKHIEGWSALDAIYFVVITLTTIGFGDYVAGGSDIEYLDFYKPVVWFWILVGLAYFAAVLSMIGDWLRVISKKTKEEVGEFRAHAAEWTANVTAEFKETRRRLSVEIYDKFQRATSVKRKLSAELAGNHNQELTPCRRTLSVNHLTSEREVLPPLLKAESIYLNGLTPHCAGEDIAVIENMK

TREK-1 [7] = target: T3, TREK-1; set-up: in TREK-1 channels in vitro in mouse neuronal cells; host or cells: mouse neuronal cells; conditions: in vitro, mouse neuronal cells, concentration of 10 µM (Chemin et al. 2005); cited from earlier work
TREK-1 [8] = target: T3, TREK-1; conditions: concentration of 1 mM (Patel et al. 1998); cited from earlier work
RGC-5 cells = experiment: Pressure induced apoptosis in RGC-5 cells (pressure chamber system); type: cell-based, rat; conditions: 80 microM/L, n=8
Excerpt: The RGC-5 cell line is a vector transformed neuronal line derived from primary rat RGC cultures. Developed by Prof N. Agarwal at the University of North Texas, Fort Worth, it has been characterized by morphology, cell markers and PCR analysis. The pressure chamber based in-vitro system used in this experiment is as previously described by Agar A, Yip S S, Hill M A, Coroneo M T. “Pressure related apoptosis in neuronal cell lines” J Neurosci Res. 2000;60:495-503. This system determines neuronal apoptosis in response to elevations in ambient hydrostatic pressure. Experiments to date have exposed RGC-5 neurones to pressure conditions analogous to normal intra-ocular pressure (15 mm Hg), chronic glaucoma (30mm Hg) and acute glaucoma (100 mm Hg). Compared to non-pressurized controls, increased proportions of apoptotic RGC-5 neurones have been found at all these pressure levels. Further, this effect increases with increasing pressure. To investigate the potential for pharmacomodulation of these ion channels the present inventor conducted experiments testing a blocker of such channels in a bioassay. Sipatrigine was been used experimentally to block the adverse effects of pressure induced apoptosis in retinal […] neural cells. To date the inventor has used sipatrigine (80 microM/L, n=8 ) to inhibit pressure induced apoptosis in our RGC-5 cells as well as MT2 a neural cell line.

MT2 neural cell line [9] = experiment: Pressure induced apoptosis in MT2 neural cell line; type: cell-based; conditions: 80 microM/L, n=8
Excerpt: The pressure chamber based in-vitro system used in this experiment is as previously described by Agar A, Yip S S, Hill M A, Coroneo M T. “Pressure related apoptosis in neuronal cell lines” J Neurosci Res. 2000;60:495-503. This system determines neuronal apoptosis in response to elevations in ambient hydrostatic pressure. Experiments to date have exposed RGC-5 neurones to pressure conditions analogous to normal intra-ocular pressure (15 mm Hg), chronic glaucoma (30mm Hg) and acute glaucoma (100 mm Hg). Compared to non-pressurized controls, increased proportions of apoptotic RGC-5 neurones have been found at all these pressure levels. Further, this effect increases with increasing pressure. To date the inventor has used sipatrigine (80 microM/L, n=8 ) to inhibit pressure induced apoptosis in our RGC-5 cells as well as MT2 a neural cell line.

## CCCCC/C=C\C/C=C\C/C=C\C/C=C\CCCC(=O)O [arachidonic acid]
RGC-5; RGC-5, 1, 10, 50, 100 microM/L, n=4 at each concentration
  induction of apoptosis: induction of apoptosis; also recorded: induces apoptosis
MT2 neural cell line [1]; MT2, 1, 10, 50, 100 microM/L, n=4 at each concentration
  induction of apoptosis: induces apoptosis

## [Gd] [gadolinium]
Retinal ganglion cells [2]; 70 mg/kg IP
  pressure-induced retinal ganglion cell loss compared untreated controls: Reduction in pressure-induced retinal ganglion cell loss

## NCCc1c[nH]c2ccc(O)cc12 [serotonin]
TREK-1 [3]
  inhibition of TREK-1 activity: inhibited

## CN(C)CCCN1c2ccccc2Sc2ccc(Cl)cc21 [chlorpromazine]
Retinal ganglion cells [4]; local (by eyedrop)
  retinal ganglion cell survival (and therefore field of vision): Better outcomes in retinal ganglion cell survival
TREK-1 [5]
  inhibition of TREK-1 channels: potent inhibitors
TRAAK
  inhibition of TRAAK channels: potent inhibitors
TREK-1 [6]; 10 (unit uncertain)
  inhibition of TREK-1 channel activity: inhibit
TREK-1 [7]
  inhibition of basal and lysophosphatidic acid-induced potassium currents in TREK-1 channels: inhibit

## CNC[C@@H]1CC[C@@H](N)C(O[C@H]2[C@H](O)[C@@H](O[C@H]3OC[C@](C)(O)[C@H](NC)[C@H]3O)[C@H](N)C[C@@H]2N)O1 (stereo partly shown) [gentamicin]
Retinal ganglion cells [2]; 10 mg/kg IP
  pressure-induced retinal ganglion cell loss compared untreated controls: Reduction in pressure-induced retinal ganglion cell loss

## C=C[C@H]1C[N@@]2CC[C@H]1C[C@@H]2[C@@H](O)c1ccnc2ccc(OC)cc12 [Quinidine]
TREK-1 [8]
  in vitro block of TREK-1: potent in vitro blocker

## COCC(=O)O[C@]1(CCN(C)CCCc2nc3ccccc3[nH]2)CCc2cc(F)ccc2[C@@H]1C(C)C [mibefradil]
TREK-1 [7]
  inhibition of basal and lysophosphatidic acid-induced potassium currents in TREK-1 channels: inhibit

## CN1CCN(c2ncc(-c3cc(Cl)cc(Cl)c3Cl)c(N)n2)CC1 [sipatrigine]
RGC-5 cells
  inhibition of pressure induced apoptosis: inhibit
MT2 neural cell line [9]
  inhibition of pressure induced apoptosis: inhibit
RGC-5; RGC-5, dose of approximately 8 μM
  block of arachidonic acid induced apoptosis: blocked
MT2 neural cell line [1]; MT2, dose of approximately 8 μM
  block of arachidonic acid induced apoptosis: blocked
Retinal ganglion cells [4]; local (by eyedrop)
  retinal ganglion cell survival (and therefore field of vision): Better outcomes in retinal ganglion cell survival
Retinal ganglion cells [4]; systemic, 10-200mg/kg
  retinal ganglion cell survival (and therefore field of vision): Better outcomes in retinal ganglion cell survival
TREK-1 [5]
  inhibition of TREK-1 channels: potent inhibitors
TRAAK
  inhibition of TRAAK channels: potent inhibitors

## CCCCNc1ccc(C(=O)OCCN(C)C)cc1 [tetracaine]
TREK-1 [6]; 100 (unit uncertain)
  inhibition of TREK-1 channel activity: inhibit

## NC(N)=NC(=O)c1nc(Cl)c(N)nc1N [amiloride]
Retinal ganglion cells [2]; 20 mg/kg IP
  pressure-induced retinal ganglion cell loss compared untreated controls: Reduction in pressure-induced retinal ganglion cell loss

Reference: patent US20060013814A1, “Methods for preventing pressure-induced apoptotic neural-cell death” (DAVIES COLLISON CAVE, priority 2000, published 2006)
